We go through 17 compounds from ChEMBL document CHEMBL1149398, “Pyrrolizidine esters and amides as 5-HT4 receptor agonists and antagonists” (J Med Chem, 2006).

Data set [1] concerns the target T1, Serotonin 3 (5-HT3) receptor (Rattus norvegicus, UniProt P35563+Q9JJ16).
T1 sequence (P35563 whole entry): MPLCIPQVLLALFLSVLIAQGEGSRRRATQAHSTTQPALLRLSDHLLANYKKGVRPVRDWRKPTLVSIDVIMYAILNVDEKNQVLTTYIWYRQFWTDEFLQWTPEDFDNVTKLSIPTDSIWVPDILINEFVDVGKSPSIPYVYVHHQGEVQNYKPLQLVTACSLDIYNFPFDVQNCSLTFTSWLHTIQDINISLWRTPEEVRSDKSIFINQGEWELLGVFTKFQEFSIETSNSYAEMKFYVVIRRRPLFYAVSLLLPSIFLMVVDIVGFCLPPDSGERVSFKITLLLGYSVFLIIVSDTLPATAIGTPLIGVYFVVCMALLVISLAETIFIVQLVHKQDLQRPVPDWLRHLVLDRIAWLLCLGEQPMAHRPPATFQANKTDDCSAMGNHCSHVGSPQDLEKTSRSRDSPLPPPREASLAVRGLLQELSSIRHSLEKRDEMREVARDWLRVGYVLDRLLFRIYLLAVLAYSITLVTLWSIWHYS
T1 sequence (Q9JJ16 whole entry): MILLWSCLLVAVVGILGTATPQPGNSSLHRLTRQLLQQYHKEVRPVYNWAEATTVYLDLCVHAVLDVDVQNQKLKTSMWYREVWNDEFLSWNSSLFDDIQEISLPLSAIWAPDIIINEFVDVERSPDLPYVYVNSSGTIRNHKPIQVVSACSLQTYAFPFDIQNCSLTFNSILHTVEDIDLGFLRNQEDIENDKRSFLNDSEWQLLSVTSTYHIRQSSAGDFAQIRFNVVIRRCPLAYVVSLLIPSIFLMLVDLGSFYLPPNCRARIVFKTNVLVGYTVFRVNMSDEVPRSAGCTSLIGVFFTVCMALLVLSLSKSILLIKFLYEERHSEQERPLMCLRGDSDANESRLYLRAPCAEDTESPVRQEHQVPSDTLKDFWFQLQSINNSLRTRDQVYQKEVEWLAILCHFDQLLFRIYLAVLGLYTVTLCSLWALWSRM
Kind of data set: Displacement of [3H]GR65630 from 5HT3 receptor in brain cortex from Wistar rat. The format is tissue-based. (In general: Loss of bound radioactivity is the signal in a displacement assay; it reports binding, not function.)

The target in data set [2] is T2, 5-hydroxytryptamine receptor 4 (Cavia porcellus, UniProt O70528). Nature of the data set: Displacement of [3H]GR-113808 from 5HT4 receptor in guinea pig striatum.
Data set [3] addresses T3, 5-hydroxytryptamine receptor 4 (Rattus norvegicus, UniProt Q62758). Kind of data set: Antagonism at 5HT4 receptor in rat tunica muscularis mucosa. To be noted: read-out: pA2 (converted). It is filed as functional, tissue-based.
The target in a further data set is D(2) dopamine receptor (Homo sapiens, UniProt P14416). Kind of data set: Binding affinity to dopamine receptor D2.
The target of data set [4] is T2, 5-hydroxytryptamine receptor 4. Nature of the data set: Inhibition of [3H]GR-113808 binding to 5HT4 receptor in guinea pig striatum at 500 nM. It is filed as tissue-based.
The target in data set [5] is T3, 5-hydroxytryptamine receptor 4. Nature of the data set: Agonism at 5HT4 receptor in rat tunica muscularis mucosa. It is filed as functional.
Data set [6] addresses T4, Serotonin 3 receptor (5HT3) (Mus musculus) (UniProt Q9JHJ5+P23979). Nature of the data set: Antagonism at 5HT3 receptor in mice by von Bezold-Jarisch reflex inhibition at 10 mg/kg, ip. It is filed as functional, organism-based. Also noted: dose 10 mg/kg.
In data set [7] the target is T4, Serotonin 3 receptor (5HT3) (Mus musculus). Kind of data set: Antagonism at 5HT3 receptor in mice by von Bezold-Jarisch reflex inhibition at 3 mg/kg, ip. Also noted: dose 3 mg/kg. The format is functional, organism-based.
Data set [8] has the same target. Kind of data set: Antagonism at 5HT3 receptor in mice by von Bezold-Jarisch reflex inhibition at 1 mg/kg, ip. Also on record: dose 1 mg/kg. It is filed as functional, organism-based.
Data set [9] relates to Salmonella typhi. Kind of data set: Mutagenic activity in a GLP study using Salmonella Typhimurium TA1535 in presence of S9 fraction at 10-5000 ug/plate. The format is toxicity, organism-based. The conditions noted are these: salmonella enterica subsp. enterica […].
In data set [10] the test system is Salmonella typhi. Nature of the data set: Mutagenic activity in a GLP study using Salmonella Typhimurium TA100 in presence of S9 fraction at 10-5000 ug/plate. The format is toxicity, organism-based. The conditions noted are these: salmonella enterica subsp. enterica […].
The subject of data set [11] is Salmonella typhi. Nature of the data set: Mutagenic activity in a GLP study using Salmonella Typhimurium TA1538 in presence of S9 fraction at 10-5000 ug/plate. The conditions noted are these: salmonella enterica subsp. enterica […]. It is filed as toxicity, organism-based.
Data set [12] deals with Salmonella typhi. Nature of the data set: Mutagenic activity in a GLP study using Salmonella Typhimurium TA97 in presence of S9 fraction at 10-5000 ug/plate. It is filed as toxicity, organism-based. The conditions noted are these: salmonella enterica subsp. enterica […].
The test system of data set [13] is Salmonella typhi. Kind of data set: Mutagenic activity in a GLP study using Salmonella Typhimurium TA98 in presence of S9 fraction at 10-5000 ug/plate. The format is toxicity, organism-based. The conditions noted are these: salmonella enterica subsp. enterica […].
Data set [14] relates to Canis familiaris. Kind of data set: Contractile response of the antrum in iv dosed fasted dog. The format is functional. The conditions noted are these: Canis lupus familiaris.
Data set [15] concerns Canis familiaris. Kind of data set: Effect on solid gastric emptying in iv dosed dog. It is filed as functional.
Data set [16] concerns the target 5-hydroxytryptamine receptor 4 (Rattus norvegicus) (UniProt Q62758). Kind of data set: Antagonism at 5HT4 receptor in rat tunica muscularis mucosa upto 100-1000 nM. It is filed as functional, tissue-based.
The target is the same in data set [17]. Nature of the data set: Antagonism at 5HT4 receptor in rat tunica muscularis mucosa at 0.1 uM. The format is functional, tissue-based.
The target of data set [18] is T4, Serotonin 3 receptor (5HT3) (Mus musculus). Nature of the data set: Antagonism at 5HT3 receptor in mice by von Bezold-Jarisch reflex inhibition at 0.3 mg/kg, ip. Also on record: dose 0.3 mg/kg. It is filed as functional, organism-based.
For data set [19] the target is unchanged. Kind of data set: Antagonism at 5HT3 receptor in mice by von Bezold-Jarisch reflex inhibition at 1000 mg/kg, ip. It is filed as functional, organism-based. Also noted: dose 1000 mg/kg.
Data set [20] can be described thus: Binding affinity to 5HT1 receptor.
Another data set concerns the target D(1A) dopamine receptor (Homo sapiens, UniProt P21728). Kind of data set: Binding affinity to dopamine receptor D1.
For data set [21], the target named is Beta-1 adrenergic receptor (Homo sapiens, UniProt P08588). Nature of the data set: Binding affinity to adrenergic beta-1 receptor.
For data set [22], the target named is Beta-2 adrenergic receptor (Homo sapiens, UniProt P07550). Kind of data set: Binding affinity to adrenergic beta-2 receptor.
Where [23] appears, read: Canis lupus familiaris, Stomach.

The source made the active and inactive calls. The calls are words filed in the database; no cut-off is given here. A value given as a limit tells only on which side of the number the result lay.

In general, Ki refers to a dissociation constant, usually derived from enzyme kinetics or from competition with a known ligand. Broadly, the IC50 is the concentration that inhibits the measured activity by half. The term inhibition denotes the change of the read-out against control, counted positive when it falls. Low values mean a weak effect, high ones a strong effect. A word on the EC50: it is the concentration needed to bring the measured effect to its halfway point. Lower therefore signals a more potent agent. Broadly, the ED50 is the midpoint of the dose-response relation.

Chain of D(2) dopamine receptor (P14416 whole entry): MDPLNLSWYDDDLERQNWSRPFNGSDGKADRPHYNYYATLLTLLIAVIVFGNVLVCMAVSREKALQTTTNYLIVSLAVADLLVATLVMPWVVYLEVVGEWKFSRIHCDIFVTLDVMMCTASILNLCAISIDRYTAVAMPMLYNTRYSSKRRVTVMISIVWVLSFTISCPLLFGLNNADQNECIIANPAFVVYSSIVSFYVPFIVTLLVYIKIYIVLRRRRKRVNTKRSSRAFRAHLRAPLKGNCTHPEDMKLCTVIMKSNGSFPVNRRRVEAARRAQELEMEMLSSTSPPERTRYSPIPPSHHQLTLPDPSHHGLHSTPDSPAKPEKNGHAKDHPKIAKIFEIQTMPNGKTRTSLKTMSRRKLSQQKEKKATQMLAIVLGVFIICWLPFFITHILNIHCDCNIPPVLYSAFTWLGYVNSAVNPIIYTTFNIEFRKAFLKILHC
T2 sequence (O70528 whole entry): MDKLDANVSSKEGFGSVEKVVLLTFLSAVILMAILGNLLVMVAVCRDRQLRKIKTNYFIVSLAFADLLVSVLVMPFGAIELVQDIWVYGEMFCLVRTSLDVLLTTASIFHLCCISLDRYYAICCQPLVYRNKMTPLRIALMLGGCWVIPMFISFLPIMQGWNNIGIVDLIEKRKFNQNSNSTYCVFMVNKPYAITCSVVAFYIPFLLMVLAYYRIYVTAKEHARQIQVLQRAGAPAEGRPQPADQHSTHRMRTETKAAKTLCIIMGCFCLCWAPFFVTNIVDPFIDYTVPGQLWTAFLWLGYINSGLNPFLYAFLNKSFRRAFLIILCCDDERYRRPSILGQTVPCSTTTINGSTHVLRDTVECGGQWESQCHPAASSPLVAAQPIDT
T4 sequence (P23979 whole entry, looked up): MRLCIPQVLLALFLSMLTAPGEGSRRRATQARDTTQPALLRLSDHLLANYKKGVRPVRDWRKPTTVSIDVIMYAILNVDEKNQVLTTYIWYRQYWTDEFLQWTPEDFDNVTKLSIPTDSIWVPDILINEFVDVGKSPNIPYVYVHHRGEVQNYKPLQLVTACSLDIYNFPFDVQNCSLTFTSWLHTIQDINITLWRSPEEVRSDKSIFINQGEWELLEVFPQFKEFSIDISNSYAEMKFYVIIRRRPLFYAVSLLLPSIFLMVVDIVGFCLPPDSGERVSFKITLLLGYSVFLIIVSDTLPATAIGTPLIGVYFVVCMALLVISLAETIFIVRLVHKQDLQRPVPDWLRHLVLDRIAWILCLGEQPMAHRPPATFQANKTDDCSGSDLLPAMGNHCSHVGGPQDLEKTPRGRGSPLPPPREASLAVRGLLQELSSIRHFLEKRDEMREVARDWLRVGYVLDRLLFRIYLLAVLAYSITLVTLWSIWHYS
T4 sequence (Q9JHJ5 whole entry, looked up): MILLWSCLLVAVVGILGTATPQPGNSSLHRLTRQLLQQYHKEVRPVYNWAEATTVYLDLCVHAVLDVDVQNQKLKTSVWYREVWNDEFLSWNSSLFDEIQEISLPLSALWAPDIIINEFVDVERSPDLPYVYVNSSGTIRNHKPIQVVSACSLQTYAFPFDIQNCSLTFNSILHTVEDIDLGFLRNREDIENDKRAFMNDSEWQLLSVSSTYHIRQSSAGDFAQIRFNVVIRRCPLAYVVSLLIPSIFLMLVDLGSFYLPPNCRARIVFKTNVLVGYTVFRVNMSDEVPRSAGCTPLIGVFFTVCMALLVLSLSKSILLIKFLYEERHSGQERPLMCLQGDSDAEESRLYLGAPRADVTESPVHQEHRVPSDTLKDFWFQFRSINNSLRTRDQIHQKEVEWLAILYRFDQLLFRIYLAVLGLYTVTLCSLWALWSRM
Chain of 5-hydroxytryptamine receptor 4 (Rattus norvegicus) (Q62758 whole entry): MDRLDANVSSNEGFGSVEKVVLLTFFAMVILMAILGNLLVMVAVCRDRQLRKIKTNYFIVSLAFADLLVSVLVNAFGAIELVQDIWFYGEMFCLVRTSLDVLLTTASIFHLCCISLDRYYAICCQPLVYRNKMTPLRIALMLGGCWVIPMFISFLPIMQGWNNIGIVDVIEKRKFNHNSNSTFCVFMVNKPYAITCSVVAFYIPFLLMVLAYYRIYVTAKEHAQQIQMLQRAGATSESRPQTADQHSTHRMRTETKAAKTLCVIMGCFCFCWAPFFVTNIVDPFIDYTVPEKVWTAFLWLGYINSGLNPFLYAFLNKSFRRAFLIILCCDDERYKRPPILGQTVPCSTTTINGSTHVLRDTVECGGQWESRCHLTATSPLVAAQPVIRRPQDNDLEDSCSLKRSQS
T3 sequence (Q62758 whole entry): as above
Chain of Beta-1 adrenergic receptor (P08588 whole entry): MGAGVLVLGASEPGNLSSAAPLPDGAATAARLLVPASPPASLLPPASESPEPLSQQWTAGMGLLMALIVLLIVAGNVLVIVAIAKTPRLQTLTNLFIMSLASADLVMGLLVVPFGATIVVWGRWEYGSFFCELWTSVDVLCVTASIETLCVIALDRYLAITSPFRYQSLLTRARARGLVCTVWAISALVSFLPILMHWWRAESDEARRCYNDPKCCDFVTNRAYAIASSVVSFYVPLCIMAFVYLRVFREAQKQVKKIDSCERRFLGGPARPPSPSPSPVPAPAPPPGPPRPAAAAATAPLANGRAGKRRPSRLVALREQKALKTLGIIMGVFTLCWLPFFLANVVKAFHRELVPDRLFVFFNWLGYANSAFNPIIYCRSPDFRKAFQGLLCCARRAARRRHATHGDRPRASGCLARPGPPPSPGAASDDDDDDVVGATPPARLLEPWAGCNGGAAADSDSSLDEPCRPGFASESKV
Chain of D(1A) dopamine receptor (P21728 whole entry): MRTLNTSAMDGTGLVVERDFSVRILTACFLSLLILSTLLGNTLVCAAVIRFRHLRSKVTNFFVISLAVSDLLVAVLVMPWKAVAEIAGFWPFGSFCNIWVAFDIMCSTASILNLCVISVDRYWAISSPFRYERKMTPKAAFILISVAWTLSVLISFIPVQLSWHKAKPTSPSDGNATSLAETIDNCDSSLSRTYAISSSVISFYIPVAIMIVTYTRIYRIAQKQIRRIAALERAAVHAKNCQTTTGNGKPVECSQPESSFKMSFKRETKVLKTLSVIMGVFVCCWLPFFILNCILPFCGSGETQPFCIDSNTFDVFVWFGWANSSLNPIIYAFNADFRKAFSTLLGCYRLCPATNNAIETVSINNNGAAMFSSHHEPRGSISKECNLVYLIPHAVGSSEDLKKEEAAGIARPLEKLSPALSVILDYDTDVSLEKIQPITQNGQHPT
Chain of Beta-2 adrenergic receptor (P07550 whole entry): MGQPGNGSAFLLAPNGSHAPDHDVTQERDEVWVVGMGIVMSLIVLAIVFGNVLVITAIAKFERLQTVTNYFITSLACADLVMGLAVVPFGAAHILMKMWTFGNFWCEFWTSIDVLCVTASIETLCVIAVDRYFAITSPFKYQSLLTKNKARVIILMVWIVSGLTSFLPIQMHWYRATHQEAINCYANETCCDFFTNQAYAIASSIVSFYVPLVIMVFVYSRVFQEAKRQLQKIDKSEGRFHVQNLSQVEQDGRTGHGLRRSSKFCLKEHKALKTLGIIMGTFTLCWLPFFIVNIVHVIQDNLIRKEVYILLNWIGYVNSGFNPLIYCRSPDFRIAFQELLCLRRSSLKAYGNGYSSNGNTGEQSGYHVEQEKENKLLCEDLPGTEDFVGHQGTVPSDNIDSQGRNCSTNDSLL

Take `O=C(OC[C@@H]1CCN2CCC[C@@H]12)c1c[nH]c2ccc(F)cc12`: the Ki in data set [1] was found to be 10 nM; in data set [2] it was 0.7 nM. The Kb in [3] is 3.16 nM.
Compound `COc1cc(N)c(Cl)cc1C(=O)NC[C@H]1CCN2CCC[C@H]12` yielded an IC50 at D(2) dopamine receptor of 3900 nM. The inhibition in data set [4] is 18%; in data set [6] it was 87%; in data set [7], 79%; in data set [8], 20%. The compound further returned an EC50 in [5] of 323 nM. Moreover, the Activity result in the data set on Salmonella typhi [9], with Salmonella typhi [10], with Salmonella typhi [11], in the data set on Salmonella typhi [12] and in the data set with Salmonella typhi [13] was “Not Active” in each case. Also, the ED50 with Canis familiaris [14] worked out at 0.45 mg/kg; with Canis familiaris [15] (setting [23]) it was 1 mg/kg.
Consider `O=C(NC[C@@H]1CCN2CCC[C@@H]12)c1cccn2ccnc12`, for which the Kb in data set [3] is 178 nM.
The same measure, in the same setting: to `Cc1cnc2c(C(=O)NC[C@@H]3CCN4CCC[C@@H]34)cc(Cl)cn12` belongs 81.3 nM.
With `CCc1cc(C(=O)NC[C@@H]2CCN3CCC[C@@H]23)c2ccccn12` (relative stereo), in data set [16], the pA2 entry is “inactive”.
Turning to `Cn1c(C(=O)OC[C@@H]2CCN3CCC[C@@H]23)cc2ccccc21`, the pA2 result in data set [17] was “inactive”.
As for `CC(C)n1c(=O)n(C(=O)NC[C@@H]2CCN3CCC[C@@H]23)c2ccccc21` (relative stereo), the Ki in data set [1] was found to be 20.2 nM; in data set [2] it was 7 nM. Further, the EC50 in data set [5] was 374 nM. The inhibition in [6] came to 87%; in [8], 62%; in [18], 0%.
Consider `CC1(C)C(=O)N(C(=O)NC[C@@H]2CCN3CCC[C@@H]23)c2ccccc21`, for which the Kb in [3] was 100 nM.
Same read-out and setting: to `COc1ccc2[nH]cc(C(=O)OC[C@@H]3CCN4CCC[C@@H]34)c2c1` belongs 70.8 nM; to `CCc1nc(C(=O)NC[C@@H]2CCN3CCC[C@@H]23)c2ccccn12` (relative stereo), 275 nM.
Take `Cn1cc(C(=O)NC[C@@H]2CCN3CCC[C@@H]23)c2ccccc21`: in data set [16], the pA2 result is “inactive”.
The compound `CCOc1cc(N)c(Cl)cc1C(=O)NC[C@@H]1CCN2CCC[C@@H]12` displayed an IC50 on D(2) dopamine receptor of 5300 nM. This compound came in with a Ki in data set [1] of 25 nM. The compound further registered an EC50 in data set [5] of 195 nM. Also, the inhibition in data set [6] is 89%; in data set [7], 48%.
In data set [5], `COc1cc(N)c(Cl)cc1C(=O)N[C@H]1CCN2CCC[C@@H]1C2` showed an EC50 of 98 nM. Also, in the data set with Canis familiaris [14], it took a dose of 0.015 mg/kg to reach the 50% effect level (ED50). The median effective dose (ED50) entry with Canis familiaris [15] (Canis lupus familiaris; Stomach) was “Active”.
For the compound `COc1cc(N)c(Cl)cc1C(=O)OC[C@@H]1CCN2CCC[C@@H]12`, on D(2) dopamine receptor, the IC50 is > 10000 nM. Besides, the Ki in data set [1] worked out at 51 nM; in data set [2] it was 0.183 nM. In addition, in [5], the EC50 was 1.5 nM. In addition, in [6], the inhibition is 0%.
In turn, `COc1cc(N)c(Cl)cc1C(=O)NC[C@@H]1CC[N@@+]2(C)CCC[C@@H]12` came in with a Ki in data set [2] of 0.35 nM. Besides, in data set [5], the EC50 was determined as 129 nM. In data set [19], the inhibition is 16%.
As to `COc1cc(N)c(Cl)cc1C(=O)NC1CCN(CCCOc2ccc(F)cc2)CC1OC` (stereo not drawn) [CISAPRIDE], the IC50 in data set [20] is > 1000 nM; on D(1A) dopamine receptor, 1700 nM; in data set [21] it was > 10000 nM; in [22], > 10000 nM. Besides, the ED50 in the data set on Canis familiaris [14] was determined as 0.056 mg/kg; in the data set with Canis familiaris [15] (setting [23]), 0.03 mg/kg.
For the compound `O=C(OC[C@@H]1CCN2CCC[C@@H]12)c1cc(Cl)cn2ccnc12`, the Kb in data set [3] is 178 nM.
